Values after ≈ are worked out from the molar mass of the structure shown. Active and inactive are the calls of the source. No cut-off for these calls is given here.
Assays:
SH-SY5Y [1] = assay: Neuroprotective activity against OGD/R induced cell injury in human SH-SY5Y cells assessed as increase in cell survival rate at 1 uM (reference value: 63.22 +/- 2.12%); type: functional; details: read-out: Survival
[2] = Antioxidant activity assessed as DPPH radical scavenging activity; type: functional
[3] = Antioxidant activity assessed as oxygen radical scavenging by measuring trolox equivalents; type: functional
[4] = Antioxidant activity assessed as ABTS radical scavenging activity; type: functional
[5] = Antioxidant activity assessed as DPPH radical scavenging activity at 8 uM relative to control; type: functional
[6] = Antioxidant activity assessed as ABTS radical scavenging activity at 8 uM relative to control; type: functional
Mus musculus [7] = assay: Neuroprotective activity against tMCAO- induced brain injury in ICR mouse model assessed as reduction in infarct volume at 10 mg/kg, ip (reference value: 43.1%); type: functional
[8] = Antioxidant activity assessed as DPPH radical scavenging activity measured after 30 mins by spectrophotometry assay; type: functional
[9] = Antioxidant activity assessed as DPPH radical scavenging activity measured after 30 mins; type: functional
Mus musculus [10] = species on record: Mus musculus; assay: Neuroprotective activity against tMCAO- induced brain injury in ICR mouse model assessed as appearance of tightly arranged neuronal cells in CA1 region by H and E staining based assay; type: functional, organism-based
Mus musculus [11] = assay: Neuroprotective activity against tMCAO- induced brain injury in ICR mouse model assessed as appearance of regularly arranged neuronal nissl bodies at 10 mg/kg, ip by nissl staining based assay; type: functional, organism-based
SH-SY5Y [12] = assay: Neuroprotective activity against OGD/R induced cell injury in human SH-SY5Y cells assessed as reduction in cell crumpling at 1 uM pretreated with OGD/R for 4 hrs followed by compound addition and measured after 24 hrs by light microscopic analysis; type: functional, cell-based
Mus musculus [13] = assay: Neuroprotective activity against tMCAO- induced brain injury in ICR mouse model assessed as appearance of abundant nissl granules at 10 mg/kg, ip by nissl staining based assay; type: functional, organism-based
Mus musculus [14] = assay: Neuroprotective activity against tMCAO- induced brain injury in ICR mouse model assessed as restoration of pyramidal cells size at 10 mg/kg, ip by H and E staining based assay; type: functional, organism-based
SH-SY5Y [15] = assay: Neuroprotective activity against OGD/R induced cell injury in human SH-SY5Y cells assessed as reduction in cell shrinkage at 1 uM pretreated with OGD/R for 4 hrs followed by compound addition and measured after 24 hrs by light microscopic analysis; type: functional, cell-based
Mus musculus [16] = assay: Neuroprotective activity against tMCAO- induced brain injury in ICR mouse model assessed as restoration of pyramidal cells morphology at 10 mg/kg, ip by H and E staining based assay; type: functional, organism-based
[17] = Metal chelating activity assessed as Cu2+ chelation by UV-Vis spectroscopy

Compound | viability at 1 µM (SH-SY5Y [1]) | IC50 ([2]; read-out: IC50) | Activity [3] | IC50 [4] | Activity [5] | Activity [6] | also measured
Cc1nc(C)c(-n2nc(C(F)(F)F)cc2O)nc1C | 75.4% | > 120 µM | 1.34 | 19.7 µM | 30.6% | 55.6% | –
COc1cc(/C=C/C(=O)CC(=O)/C=C/c2ccc(O)c(OC)c2)ccc1O [CURCUMIN] | – | – | – | – | – | – | IC50 [2]: 28 µg/mL
OCc1ccc(-n2nc(C(F)(F)F)cc2O)nc1 | 78.1% | 63.9 µM | 0.91 | 28 µM | 40.4% | 57.1% | Activity (Mus musculus [7]): Not active; Showed Weak Activity
Oc1cc(C(F)(F)F)nn1-c1ncccn1 | 72.7% | 45.3 µM | 1.19 | 13.9 µM | 36.4% | 63.2% | –
Oc1ccc(/C=C/c2cc(O)cc(O)c2)cc1 [RESVERATROL] | – | – | – | – | – | – | IC50 [8]: 65 µM
O=C1S/C(=C\c2cn(-c3ccccc3)nc2-c2ccc(O)cc2)C(=O)N1Cc1ccccc1 | – | – | – | – | – | – | IC50 [9]: 110.8 µg/mL (≈ 244 µM)
Oc1cc(C(F)(F)F)nn1-c1ncccc1Cl | 78.8% | > 120 µM | 1.13 | 19.5 µM | 28.1% | 40.4% | –
O=C(O)/C=C/c1ccc(O)c(O)c1 [CAFFEIC ACID] | – | – | – | – | – | – | IC50 [2]: 0.8 µg/mL
Cc1cc(O)n(-c2cccc(CO)n2)n1 | 75.4% | 59.5 µM | 1.06 | 18.9 µM | 28.5% | 49.6% | –
Cc1cc(O)n(-c2ncccc2Cl)n1 | 71.5% | – | 0.9 | – | 2.36% | 4.56% | –
O=C(O)C1CS[C@@H](c2cccc(F)c2F)N1 (stereo not given in full) | – | 830 µM | – | – | – | – | –
O=C(c1cc(O)c(O)c(O)c1)c1cc(O)c(Br)cc1O | – | – | – | – | – | – | IC50 [2]: 14.4 µg/mL
Cc1cc(C)nc(-n2nc(C)cc2O)n1 | 74.7% | 18.5 µM | 1.56 | 14.6 µM | 51.6% | 63.9% | –
C[C@H]1[C@H](C)CC[C@]2(C(=O)O)CC[C@]3(C)C(=CC[C@@H]4[C@@]5(C)CC[C@H](O)C(C)(C)[C@@H]5CC[C@]43C)[C@H]12 [URSOLIC ACID] | – | – | – | – | – | – | IC50 [2]: 59 µg/mL
Oc1cc(C(F)(F)F)nn1-c1ncccc1C(F)(F)F | 70.8% | > 120 µM | 1.22 | 35.5 µM | 34.7% | 36.1% | –
Oc1cc(C(F)(F)F)nn1-c1ccc(F)cn1 | 71.8% | 43.1 µM | 1.19 | 16.6 µM | 35.7% | 58.3% | –
Oc1cc(C(F)(F)F)nn1-c1ncc(F)cn1 | 80.5% | 45.5 µM | 1.07 | 16.3 µM | 30.9% | 65.4% | –
Cc1cc(O)n(-c2ccc(F)cn2)n1 | 89.5% | 19.8 µM | 1.06 | 13.8 µM | 21.4% | 51.6% | –
Cc1cc(O)n(-c2ccc(Cl)cn2)n1 | 73.4% | 18.8 µM | 1.27 | 14.8 µM | 53% | 52% | –
Cc1cc(O)n(-c2ccccn2)n1 | 81.5% | 15.4 µM | 1.27 | 12.3 µM | 35.1% | 69.1% | –
Oc1cc(C(F)(F)F)nn1-c1ccc(C(F)(F)F)cn1 | 84.5% | 35.8 µM | 1.1 | 14.8 µM | 28.4% | 68.1% | –
Oc1cc(C(F)(F)F)nn1-c1ncc(Cl)cc1Cl | 76.6% | > 120 µM | 1.3 | 20.4 µM | 29.4% | 46% | –
Cc1cc(O)n(-c2ncccc2C)n1 | 87% | 16.1 µM | 1.88 | 13.7 µM | 49.9% | 54.7% | Activity (Mus musculus [10]): Active; Activity (Mus musculus [11]): Active; Activity (SH-SY5Y [12]): Active; Activity (Mus musculus [13]): Active; Activity (Mus musculus [7]): 24.9%; Activity (Mus musculus [14]): Active; Activity (SH-SY5Y [15]): Active; Activity (Mus musculus [16]): Active; Activity [17]: Active
Cc1cc(O)n(-c2ncccc2C(F)(F)F)n1 | 77.4% | – | 0.98 | – | 2.85% | 5.92% | –
Cc1c(C)c2c(c(C)c1O)CCC(C)(C(=O)O)O2 (stereo not given) | – | – | 1 | – | – | – | –
CC1=NN(c2ccccc2)C(=O)C1 [EDARAVONE] | 72.2% | 42.5 µM | 1.46 | 15.8 µM | 21.4% | 52.3% | –
CC1=NN(c2ncc(Cl)cc2Cl)C(=O)C1 | 82.5% | > 120 µM | 1.42 | 19.4 µM | 6.73% | 31.9% | –
Cc1cc(O)n(-c2ccc(CO)cn2)n1 | 81.7% | 32 µM | 0.8 | 20.5 µM | 34.7% | 46.4% | –
Cc1cc(O)n(-c2ccc(C(F)(F)F)cn2)n1 | 79.1% | 15.2 µM | 1.14 | 16.1 µM | 30.3% | 55% | –
